# Entries after “also recorded” stand apart in the source; their conditions may differ. Like-named read-outs stand apart in the source and are kept apart here.
# Experiments:
# [1] = system: S-typhimurium TA 1535, TA 1537, TA 1538, TA 98 and TA 100; assay: Ames test; type: cell-based
# [2] = system: blood-dot area in right ear; assay: re-absorption of citrated blood injected in the rabbit ear (blood-dot area); type: in vivo, New Zealand rabbits; conditions: oral, placebo 20.3
# Procedure: Finally, the compounds of the invention are able to induce re-absorption of the total citrated blood when blood is injected in the right ear of New Zealand rabbits. 12 hours after blood inoculation into ear, the animal were randomized and treated with scalar doses of the investigated compounds administered for 4 days by oral route. The blood-dot areas are evaluated and compared with the areas of the control animals treated with placebo only. In table 5 are reported some experimental results.
# [3] = system: burning induced oedema of hind paws; assay: burning induced oedema test; type: in vivo, Sprague-Dawley male rats; conditions: for % inhibition / Paw volume, DV: 12 h
# Procedure: Reduction of the burning induced oedema test has been also used to evidentiate the antiinflammatory activity and the proteolytic mechanism of action of the compounds of the invention. 18 hours-fasted Sprague-Dawley male rats, body weight: 170-220 g, are used in this testing procedure. The animals are divided into five animal groups and the volume (in ml) of the posterior hind paws is measured before these paws are burnt by immersion for 22 seconds in 55° C. heated water. 15 minutes after burning, the animals are treated, by oral route, with different dosages of the investigated compounds and placebo. The volume of paws is measured 6, 12 and 18 hours after burning and the increased volume of the paws is evaluated.
# coagulation factors = assay: coagulation parameters (DPTT, Hepato quick, clotting time); type: in vivo
# S. Pombae = assay: forward mutation in S. Pombae; type: cell-based
# [4] = system: carrageenan induced edema of the rats hind paw; assay: carrageenan induced edema of the rat hind paw; type: in vivo
# From the text: 6-fluoro coumarin and the compounds of the invention are also effective in the management of the acute inflammation.
# The carrageenan edema test proposed by Winter C. A., Risley A., Noss G. W. (Proc. Soc. Exp. Biol., 101, 544, 1962) was used.
# The compounds, administered i.p. 30' before the carrageenan as suspension in 1% aqueous carboxymethylcellulose homogeneized by ultrasounds, were compared with coumarin at different dose-levels on 6 animal groups. The percent reduction of the rat hind paw edema was evaluated at different times.
# [5] = system: mouse peritoneal macrophages; assay: proteolysis by mouse peritoneal macrophages; conditions: for Mean ICA-soluble fragm. (24 h-0 h) x 10^6 cell: 10 mice; for minimal effective dose: Mus musculus, Peritoneal macrophage, ip; for increase in proteolysis: at the higher doses, coumarin at similar doses
# From the text: Ability of the 6-fluoro coumarin itself, and the other compounds of the invention, to increase proteolysis by mouse peritoneal macrophages is shown by using the testing procedure reported by T. Bolton and J. R. Casley-Smith, Experimentia, 31, 275 (1975).
# Due to the great standard error, many replications are necessary in order to obtain reliable dose-response curves.
# dog liver microsomes = assay: incubation of labelled C^14-6 fluoro coumarin with dog liver microsomes; type: in vitro ADME; conditions: C^14-labelled
# Procedure: Using the method reported by T. C. Butler et al. (Arch. Intern. Pharmacod. Ther., 228, 4 (1977)), labelled C^14 -6 fluoro coumarin was incubated with dog liver microsomes.
# lymphoedemas = assay: preliminary experiments in humans with primary and secondary lymphoedemas; type: in vivo; conditions: capsules of 50 mg
# Procedure: So, a very restricted number of selected male and female patients, affected by primary and secondary lymphoedemas, with intact renal and hepatic functions, was treated with the compounds of the invention, particularly with 6-fluoro coumarin.
# In the absence of any other therapeutic treatment, the selected schedule of treatment foresees administration of capsules, many times pro die.
# The diagnostic parameters investigated are: general and gastric clinical tolerability; number of red blood cell, leukocites, neutrophiles and platelets; haemoglobin concentration, γ-glutamyl transpeptidase; serum creatinine and volume of edema.
# [6] = Occupational Safety and Health Administration; cited from earlier work
# [7] = system: S. typhimurium (TA 1535, TA 1537, TA 1538, TA 98, TA 100); conditions: cited from earlier work
# coagulation = conditions: Schofield; Feuer et al.; cited from earlier work
# [8] = cited from earlier work
# [9] = metabolism after oral administration to rabbits, analysis of faeces and urines over 24 hours; conditions: rabbit, coumarin in similar experimental conditions
# Procedure: In a second experiment, C^14 -labelled 6-fluoro coumarin was administered by oral route to rabbits and faeces and urines were collected during a period of 24 hours. As it is usual for metabolic studies, the excreta were treated by β-glucoronidase and aryl sulfatase and extracted by methylene chloride in a little acid medium. […] In these studies, labelled 6-fluoro coumarin having a 1 Ci/mole specific radioactivity was used.
# [10] = oral, 2 consecutive days, equimolecular doses
structure (smiles),measurement,setting,value
"O=c1ccc2cc(F)ccc2o1 [6-fluoro coumarin, 6-fluoro-2H-1-benzopyran-2-one]",mutagenic property in the Ames test,[1],no mutagenic property is evident
same,% reduction of blood-dot area after 4 days,[2]; 25 mg/kg pro die,64.13%
same,% reduction of blood-dot area after 4 days,[2]; 50 mg/kg pro die,92%
same,effects in mitotic genic conversion test,S. cerevisiae,No kinds of effects are noticed
same,% inhibition,[3]; 12.5 mg/kg oral,no sign
same,"Paw volume, DV",[3]; 12.5 mg/kg oral,0.86 mL
same,"Paw volume, 12 h value","[3]; 12.5 mg/kg oral, basal 1.348",2.207 mL
same,% inhibition,[3]; 25.0 mg/kg oral,37%
same,"Paw volume, DV",[3]; 25.0 mg/kg oral,0.56 mL
same,"Paw volume, 12 h value","[3]; 25.0 mg/kg oral, basal 1.504",2.060 mL
same,% inhibition,[3]; 50.0 mg/kg oral,67%
same,"Paw volume, DV",[3]; 50.0 mg/kg oral,0.29 mL
same,"Paw volume, 12 h value","[3]; 50.0 mg/kg oral, basal 1.464",1.760 mL
same,% inhibition,[3]; 1000.0 mg/kg oral,71%
same,"Paw volume, DV",[3]; 1000.0 mg/kg oral,0.26 mL
same,"Paw volume, 12 h value","[3]; 1000.0 mg/kg oral, basal 1.416",1.676 mL
same,effect on DPTT,coagulation factors; [10],not able to modify
same,effect on Hepato quick,coagulation factors; [10],not able to modify
same,effect on clotting time,coagulation factors; [10],not able to modify
same,effects in forward mutation test,S. Pombae,No kinds of effects are noticed
same,activity relative to coumarin,"[4]; ""at least 1.5-2.5 times more active than coumarin""",1.5-2.5 times
same,reduction of carrageenan induced edema,[4]; at all the times (1; 3; 4 and 5 h),reduce carrageenan induced edema of the rats hind paw at all the times
same,Significance of difference from control,[5]; 3.12 mg/kg i.p.,NS (p > 0.05)
same,Mean ICA-soluble fragm. (24 h-0 h) x 10^6 cell,[5]; 3.12 mg/kg i.p.,0.22 mM glycin
same,Significance of difference from control,[5]; 6.25 mg/kg i.p.,NS (p > 0.05)
same,Mean ICA-soluble fragm. (24 h-0 h) x 10^6 cell,[5]; 6.25 mg/kg i.p.,0.19 mM glycin
same,Significance of difference from control,[5]; 12.5 mg/kg i.p.,* (0.05 > p > 0.01)
same,Mean ICA-soluble fragm. (24 h-0 h) x 10^6 cell,[5]; 12.5 mg/kg i.p.,0.29 mM glycin
same,Mean ICA-soluble fragm. (24 h-0 h) x 10^6 cell,[5]; 25 mg/kg i.p.,0.37 mM glycin
same,Significance of difference from control,[5]; 50 mg/kg i.p.,* (0.05 > p > 0.01)
same,Potency ratio in the proteolytic test,"[5]; 50 mg/kg i.p. in sesame oil, 10 replication, coumarin = 1",11.5
same,Mean ICA-soluble fragm. (24 h-0 h) x 10^6 cell,[5]; 50 mg/kg i.p.,0.34 mM glycin
same,Mean ICA-soluble fragm. (24 h-0 h) x 10^6 cell,[5]; 100 mg/kg i.p.,0.40 mM glycin
same,minimal effective dose,[5]; read-out: dosage level with proteolysis significantly greater than the control,> 6.25 mg/kg
same,minimal effective dose,[5]; read-out: dose from which stimulation of protein digestion starts,12.5 mg/kg
same,increase in proteolysis,[5],threefold
same,effects in gene mutation test,somatic mammalian cells,No kinds of effects are noticed
same,metabolism by cytochromes,dog liver microsomes,not metabolized by cytochromes
same,recovery of unchanged compound,dog liver microsomes,80%
same,tolerability,"lymphoedemas; 10 treated patients, all dosages investigated",excellent
same,patients with significant reduction of the oedema volume,lymphoedemas; of 10 treated patients,4 patients
"O=c1ccc2ccccc2o1 [coumarin, 2H-1-benzopyran-2-one]",carcinogen category,[6],category I carcinogen
same,% reduction of blood-dot area after 4 days,[2]; 50 mg/kg pro die,67.31%
same,effects in mitotic genic conversion test,S. cerevisiae,positive responder
same,mutagenicity,[7],weak mutagenic substance
same,inhibition,[3]; 50 mg/kg,35%
same,times less active than 6-fluoro coumarin,[3]; 50 mg/kg,about 2 times
same,effect on Hepato quick,"coagulation factors; in vivo, po",moderately influences Hepato quick (in decreasing way)
same,anticoagulant activity,coagulation,anticoagulant activites
same,effects in forward mutation test,S. Pombae,positive responder
same,% Reduction of the edema by carrageenan,"[4]; 1.55 mg/kg i.p., 3 h",23%
same,% Reduction of the edema by carrageenan,"[4]; 3.12 mg/kg i.p., 3 h",53%
same,% Reduction of the edema by carrageenan,"[4]; 3.12 mg/kg i.p., 5 h",53.4%
same,% Reduction of the edema by carrageenan,"[4]; 6.25 mg/kg i.p., 3 h",78%
same,increase in proteolysis,[5],2.2 fold
same,metabolism in man,[8],extensively metabolized in man upon first pass through the liver; also recorded: C-3 hydroxylation practically absent in man
same,metabolism (hydroxylation / lactone ring opening),[9],metabolized by hydroxylation and also by δ-lactone ring opening; also recorded: metabolized by hydroxylation and by δ-lacton ring opening
same,effects in gene mutation test,somatic mammalian cells,positive responder

# Source: patent US4749798A, “Fluoro coumarins as antilymphoedema agents” (priority 1984, dated 1988)
